Results from patent US4174391A, “Spiramycin esters” (May & Baker Limited, priority 1976, dated 1979).
Converted amounts (≈) assume the structure as drawn. Structures can show the parent of a compound that is named as a salt.

How the values were obtained:
[1] = tested on: Staphylococcus aureus (Oxford); assay: In vitro minimum inhibitory concentration, S. aureus (Oxford) (Test 3); format: cell-based; details: tryptone soya broth, approximately 10^5 organisms per tube, 37° C.; for MIC: Staphylococcus aureus
Protocol: (§1) For each test compound, a range of concentrations in tryptone soya broth was prepared. Each test-tube containing a different concentration of the test compound within the range was inoculated with the test organism selected from Staphylococcus aureus (Oxford) or Escherichia coli B (Ennis) (approximately 10^5 organisms per tube) and after incubation at 37° C., the lowest concentration of test compound within the range required to prevent the growth of the test organism was recorded as the minimum inhibitory concentration for that compound and that organism.

[2] = tested on: Escherichia coli B (Ennis); assay: In vitro minimum inhibitory concentration, E. coli B (Ennis) (Test 3); format: cell-based; details: tryptone soya broth, approximately 10^5 organisms per tube, 37° C.; for MIC: Escherichia coli
Protocol: as §1

[3] = tested on: Staphylococcus aureus Smith; assay: Mouse treated subcutaneously, Staphylococcus aureus Smith infection (Test 2); format: in vivo; details: sc, 168 h, read-out: CD50 (subcutaneous)
Protocol: (§2) The term "CD50" means the dose calculated to cure 50% of the mice treated.
Mice were infected intra-peritoneally with Staphylococcus aureus Smith [approximately 100 times the minimum dose lethal to 100% of mice infected] suspended in mucin (0.5 ml).
The results obtained from a compound of general formula I were compared with the results obtained from spiramycin I used as a standard compound.

[4] = tested on: Staphylococcus aureus Smith; assay: Mouse treated orally, Staphylococcus aureus Smith infection (Test 1); details: 168 h, oral, dosed 1, 4, 24, 30 and 48 hours after infection, observed seven days, test compound, read-out: In vivo CD50 (oral)
Protocol: Mice were injected intra-peritoneally with Staphylococcus aureus Smith suspended in mucin (0.5 ml). This infection represented approximately 100 times the minimum dose calculated to kill 100% of mice. The mice were each treated orally with 16, 31, 62.5, 125 or 250 mg/kg animal body weight doses of a compound of general formula I. Each mouse was dosed 1, 4, 24, 30 and 48 hours after infection, with the selected dose.
as §2

[5] = Mouse oral toxicity; details: in vivo
Protocol: Mice were each treated orally with one of the compounds of general formula I, and they were observed during the next 3 days.
The LD50 figures obtained (doses lethal to 50% of mice treated) are shown in Table II, expressed in mg/kg animal body weight. None of the mice died during the experiment even at doses of 1000 mg/kg animal body weight.

Spiramycin [reference compound]
In vitro minimum inhibitory concentration, S. aureus (Oxford) [1]: 0.62 to 2.5 µg/mL | In vitro minimum inhibitory concentration, Escherichia coli B (Ennis) [2]: 62 to 250 µg/mL

COC1C(O)CC(=O)OC(C)C/C=C/C=C/C(OC2CCC(N(C)C)C(C)O2)C(C)CC(CC=O)C1OC1OC(C)C(OC2CC(C)(O)C(O)C(C)O2)C(N(C)C)C1O (stereo not drawn) [Spiramycin I, spiramycin I, reference compound]
ED50 [3]: 5.8 mg/kg

COC1C(O)CC(=O)OC(C)C/C=C/C=C/C(OC2CCC(N(C)C)C(C)O2)C(C)CC(CC=O)C1OC1OC(C)C(OC2CC(C)(O)C(O)C(C)O2)C(N(C)C)C1OC(=O)CCC(=O)Oc1ccccc1 (stereo not drawn) [K, 2'-phenyl succinate of spiramycin I]
MIC [1]: 2.5 µg/mL | MIC [2]: 250 µg/mL | ED50 [4]: 76 mg/kg

CCOC(=O)CCCC(=O)OC1C(OC2C(CC=O)CC(C)C(OC3CCC(N(C)C)C(C)O3)/C=C/C=C/CC(C)OC(=O)CC(O)C2OC)OC(C)C(OC2CC(C)(O)C(O)C(C)O2)C1N(C)C (stereo not drawn) [B, 2'-ethyl glutarate of spiramycin I]
MIC [1]: 1.25 µg/mL (≈ 1.27 µM) | MIC [2]: 62 µg/mL (≈ 62.9 µM) | ED50 [4]: 135 mg/kg | LD50 at 72 h [5]: > 1000 mg/kg

COC1C(O)CC(=O)OC(C)C/C=C/C=C/C(OC2CCC(N(C)C)C(C)O2)C(C)CC(CC=O)C1OC1OC(C)C(OC2CC(C)(O)C(O)C(C)O2)C(N(C)C)C1OC(=O)CCC(=O)SC (stereo not drawn) [G, 2'-S-methyl thiosuccinate of spiramycin I]
MIC [1]: 2.5 µg/mL (≈ 2.57 µM) | MIC [2]: 500 µg/mL (≈ 514 µM) | ED50 [4]: 114 mg/kg

CCOC(=O)CCC(=O)OC1C(OC2C(CC=O)CC(C)C(OC3CCC(N(C)C)C(C)O3)/C=C/C=C/CC(C)OC(=O)CC(O)C2OC)OC(C)C(OC2CC(C)(O)C(O)C(C)O2)C1N(C)C (stereo not drawn) [A, 2'-ethyl succinate of spiramycin I]
MIC [1]: 1.25 µg/mL | MIC [2]: 62 µg/mL | ED50 [4]: 88 mg/kg | ED50 ([3]; mouse, subcutaneous, 1, 4, 24, 30 and 48 hours after infection, observed seven days): 17.5 mg/kg | LD50 at 72 h [5]: > 1000 mg/kg

COC(=O)CCCC(=O)OC1C(OC2C(CC=O)CC(C)C(OC3CCC(N(C)C)C(C)O3)/C=C/C=C/CC(C)OC(=O)CC(O)C2OC)OC(C)C(OC2CC(C)(O)C(O)C(C)O2)C1N(C)C (stereo not drawn) [E, 2'-methyl glutarate of spiramycin I]
MIC [1]: 2.5 µg/mL (≈ 2.57 µM) | MIC [2]: 125 µg/mL (≈ 129 µM) | ED50 [4]: 125 mg/kg

CCOC(=O)CC(=O)OC1C(OC2C(CC=O)CC(C)C(OC3CCC(N(C)C)C(C)O3)/C=C/C=C/CC(C)OC(=O)CC(O)C2OC)OC(C)C(OC2CC(C)(O)C(O)C(C)O2)C1N(C)C (stereo not drawn) [J, 2'-ethyl malonate of spiramycin I]
MIC [1]: 5 µg/mL (≈ 5.22 µM) | MIC [2]: 250 µg/mL (≈ 261 µM) | ED50 [4]: 120 mg/kg

CCCOC(=O)CCC(=O)OC1C(OC2C(CC=O)CC(C)C(OC3CCC(N(C)C)C(C)O3)/C=C/C=C/CC(C)OC(=O)CC(O)C2OC)OC(C)C(OC2CC(C)(O)C(O)C(C)O2)C1N(C)C (stereo not drawn) [D, 2'-propyl succinate of spiramycin I]
MIC [1]: 2.5 µg/mL | MIC [2]: 250 µg/mL | ED50 [4]: 90 mg/kg

COC1C(O)CC(=O)OC(C)C/C=C/C=C/C(OC2CCC(N(C)C)C(C)O2)C(C)CC(CC=O)C1OC1OC(C)C(OC2CC(C)(O)C(O)C(C)O2)C(N(C)C)C1OC(=O)CCC(=O)OC(C)(C)C (stereo not drawn) [N, 2'-tertiary-butyl succinate of spiramycin I]
MIC [1]: 2.5 µg/mL | MIC [2]: 125 µg/mL | ED50 [4]: 130 mg/kg

COC1C(O)CC(=O)OC(C)C/C=C/C=C/C(OC2CCC(N(C)C)C(C)O2)C(C)CC(CC=O)C1OC1OC(C)C(OC2CC(C)(O)C(O)C(C)O2)C(N(C)C)C1OC(=O)CCC(=O)OCCc1ccccc1 (stereo not drawn) [M, 2'-(2-phenylethyl) succinate of spiramycin I]
MIC [1]: 2.5 µg/mL | MIC [2]: 250 µg/mL | ED50 [4]: 64 mg/kg

COC1C(O)CC(=O)OC(C)C/C=C/C=C/C(OC2CCC(N(C)C)C(C)O2)C(C)CC(CC=O)C1OC1OC(C)C(OC2CC(C)(O)C(O)C(C)O2)C(N(C)C)C1OC(=O)CCC(=O)OC1CCCCC1 (stereo not drawn) [H, 2'-cyclohexyl succinate of spiramycin I]
MIC [1]: 2.5 µg/mL | MIC [2]: 250 µg/mL | ED50 [4]: 67 mg/kg

COC1C(O)CC(=O)OC(C)C/C=C/C=C/C(OC2CCC(N(C)C)C(C)O2)C(C)CC(CC=O)C1OC1OC(C)C(OC2CC(C)(O)C(O)C(C)O2)C(N(C)C)C1OC(=O)CCC(=O)OC(C)C (stereo not drawn) [O, 2'-isopropyl succinate of spiramycin I]
MIC [1]: 1.25 µg/mL | MIC [2]: 125 µg/mL | ED50 [4]: 96 mg/kg

COC(=O)/C=C/C(=O)OC1C(OC2C(CC=O)CC(C)C(OC3CCC(N(C)C)C(C)O3)/C=C/C=C/CC(C)OC(=O)CC(O)C2OC)OC(C)C(OC2CC(C)(O)C(O)C(C)O2)C1N(C)C (stereo not drawn) [F, 2'-methyl fumarate of spiramycin I]
MIC [1]: 2.5 µg/mL | MIC [2]: 250 µg/mL | ED50 [4]: 125 mg/kg

COC(=O)CCC(=O)OC1C(OC2C(CC=O)CC(C)C(OC3CCC(N(C)C)C(C)O3)/C=C/C=C/CC(C)OC(=O)CC(O)C2OC)OC(C)C(OC2CC(C)(O)C(O)C(C)O2)C1N(C)C (stereo not drawn) [C, 2'-methyl succinate of spiramycin I]
MIC [1]: 2.5 µg/mL | MIC [2]: 250 µg/mL | ED50 [4]: 62 mg/kg

COC(=O)CC(C)C(=O)OC1C(OC2C(CC=O)CC(C)C(OC3CCC(N(C)C)C(C)O3)/C=C/C=C/CC(C)OC(=O)CC(O)C2OC)OC(C)C(OC2CC(C)(O)C(O)C(C)O2)C1N(C)C (stereo not drawn) [Compound L, 2'-methyl (RS)-(3-methyl)succinate of spiramycin I]
MIC [1]: 2.5 µg/mL (≈ 2.57 µM) | MIC [2]: 250 µg/mL (≈ 257 µM) | ED50 [4]: 58 mg/kg
